Data set [1] has as its system Mycobacterium tuberculosis. As to the kind of experiment: Antimycobacterial activity against Mycobacterium tuberculosis H37Rv assessed as bacterial growth inhibition by microplate Alamar blue assay. The data set is classed as functional.
Data set [2] has as its system Escherichia coli. As to the kind of experiment: Antibacterial activity against Escherichia coli assessed as inhibition zone at 75 ug/ml by diffusion method. It is filed as functional. Particulars: read-out: IZ.
Data set [3] has as its system Escherichia coli. The experiment in a line: Antibacterial activity against Escherichia coli assessed as inhibition zone at 50 ug/ml by diffusion method. It is filed as functional. Particulars: read-out: IZ.
For data set [4], the system named is Escherichia coli. As to the kind of experiment: Antibacterial activity against Escherichia coli assessed as inhibition zone at 25 ug/ml by diffusion method. It is filed as functional. Particulars: read-out: IZ.
Data set [5] deals with Staphylococcus aureus. The experiment in a line: Antibacterial activity against Staphylococcus aureus assessed as inhibition zone at 75 ug/ml by diffusion method. Conditions: read-out: IZ. It is filed as functional.
Data set [6] relates to Staphylococcus aureus. As to the kind of experiment: Antibacterial activity against Staphylococcus aureus assessed as inhibition zone at 50 ug/ml by diffusion method. The data set is classed as functional. Particulars: read-out: IZ.
Data set [7] concerns Staphylococcus aureus. The experiment in a line: Antibacterial activity against Staphylococcus aureus assessed as inhibition zone at 25 ug/ml by diffusion method. The data set is classed as functional. Conditions: read-out: IZ.
Data set [8] relates to Pseudomonas aeruginosa. As to the kind of experiment: Antibacterial activity against Pseudomonas aeruginosa assessed as inhibition zone at 75 ug/ml by diffusion method. The data set is classed as functional. Conditions: read-out: IZ.
Data set [9] has as its system Pseudomonas aeruginosa. As to the kind of experiment: Antibacterial activity against Pseudomonas aeruginosa assessed as inhibition zone at 50 ug/ml by diffusion method. It is filed as functional. Conditions: read-out: IZ.
Data set [10] deals with Pseudomonas aeruginosa. As to the kind of experiment: Antibacterial activity against Pseudomonas aeruginosa assessed as inhibition zone at 25 ug/ml by diffusion method. It is filed as functional. Particulars: read-out: IZ.
Data set [11] can be described thus: Cytotoxicity against African green monkey Vero cells measured after 72 hrs by MTT assay. It is filed as toxicity, cell-based. Particulars: chlorocebus sabaeus. On the technique in general: Formazan colour is commonly taken as a measure of viable cells.
The nature of data set [12]: Selectivity index, ratio of CC50 for African green monkey Vero cells to MIC for Mycobacterium tuberculosis H37Rv. It is filed as toxicity. Conditions: read-out: Selectivity Index.
The nature of data set [13]: Cytotoxicity against African green monkey Vero cells assessed as inhibition of cell growth at 6.25 ug/ml measured after 72 hrs by MTT assay relative to control. Conditions: chlorocebus sabaeus, at 6.25 µg/mL. The data set is classed as toxicity, cell-based.

Here are results for two molecules from ChEMBL document CHEMBL5523679, “Discovery of 1,2,3-triazole incorporated indole-piperazines as potent antitubercular agents: Design, synthesis, in vitro biological evaluation, molecular docking and ADME studies” (Bioorg Med Chem, 2024).

As usually defined, the MIC is the lowest concentration found to suppress growth. As a reminder, the CC50 is the concentration that lowers cell viability or growth by half. For orientation: inhibition means the drop in the measured response relative to a control, in per cent.

Each structure is given as a SMILES string. Converted amounts (≈) assume the structure as drawn.

`COc1ccc(C(=O)N2CCN(C(=O)CCc3cn(Cc4cn(Cc5ccc(F)cc5)nn4)c4ccccc34)CC2)cc1`: the minimal inhibitory concentration (MIC) in data set [1] is 2.7 µM. For the same molecule, the zone of inhibition at 75 µg/mL with Escherichia coli [2] was 25 mm; in the data set on Staphylococcus aureus [5], 20 mm; in the data set with Pseudomonas aeruginosa [8] it was 18 mm. For the same molecule, the zone of inhibition at 50 µg/mL turned out to be 23 mm in the data set with Escherichia coli [3], 18 mm in the data set with Staphylococcus aureus [6] and 13 mm with Pseudomonas aeruginosa [9]. The zone of inhibition at 25 µg/mL is 15 mm in the data set with Escherichia coli [4], 12 mm in the data set on Staphylococcus aureus [7] and 9 mm with Pseudomonas aeruginosa [10]. The CC50 at 72 h in data set [11] came to 1470 µg/mL (≈ 2520 µM). Besides, the selectivity ratio in data set [12] came to 916. Also, in [13], the inhibition at 72 h, 6.25 ug/ml amounted to 8.8%.

As for `O=C(CCc1cn(Cc2cn(Cc3ccc(F)cc3)nn2)c2ccccc12)N1CCN(S(=O)(=O)c2ccccc2)CC1`, in [1], the minimum inhibitory concentration (MIC) came out at 10.6 µM. The zone of inhibition at 75 µg/mL is 20 mm with Escherichia coli [2], 20 mm with Staphylococcus aureus [5] and 15 mm with Pseudomonas aeruginosa [8]. Moreover, the zone of inhibition at 50 µg/mL came to 15 mm with Escherichia coli [3], 15 mm with Staphylococcus aureus [6] and 13 mm in the data set on Pseudomonas aeruginosa [9]. For the same molecule, the zone of inhibition at 25 µg/mL in the data set on Escherichia coli [4] was found to be 13 mm; with Staphylococcus aureus [7], 9 mm; in the data set with Pseudomonas aeruginosa [10], 10 mm. In addition, the CC50 at 72 h in data set [11] was 1540 µg/mL (≈ 2630 µM). In addition, in [12], the selectivity ratio turned out to be 247. The inhibition at 72 h, 6.25 ug/ml in data set [13] was determined as 11.1%.
